Source: the NIST ThermoML archive (doi:10.1021/je4010678)

Assay: xn = mol fraction of the nth substance listed
Conditions: 101 kPa, Liquid, Scientific instruments device model 9700

[I-].[K+] [potassium iodide] + C[S+](C)[O-]
Conditions	electrical conductivity [S/m]
293.15 K, x1 = 0.0001281	0.00573
293.15 K, x1 = 0.0001586	0.00687
293.15 K, x1 = 0.0003312	0.0147
293.15 K, x1 = 0.0006135	0.0267
293.15 K, x1 = 0.001095	0.0457
293.15 K, x1 = 0.002002	0.0778
293.15 K, x1 = 0.005707	0.183
293.15 K, x1 = 0.01	0.348
293.15 K, x1 = 0.0197	0.605
293.15 K, x1 = 0.04	0.8279
293.15 K, x1 = 0.0499	0.9283
293.15 K, x1 = 0.0707	0.9369
295.15 K, x1 = 0.0001281	0.00602
295.15 K, x1 = 0.0001586	0.00718
295.15 K, x1 = 0.0003312	0.0153
295.15 K, x1 = 0.0006135	0.0279
295.15 K, x1 = 0.001095	0.0475
295.15 K, x1 = 0.002002	0.0809
295.15 K, x1 = 0.005707	0.19
295.15 K, x1 = 0.01	0.362
295.15 K, x1 = 0.0197	0.632
295.15 K, x1 = 0.04	0.8651
295.15 K, x1 = 0.0499	0.9694
295.15 K, x1 = 0.0707	0.9785
297.15 K, x1 = 0.0001281	0.0063
297.15 K, x1 = 0.0001586	0.00749
297.15 K, x1 = 0.0003312	0.0159
297.15 K, x1 = 0.0006135	0.0291
297.15 K, x1 = 0.001095	0.0493
297.15 K, x1 = 0.002002	0.0841
297.15 K, x1 = 0.005707	0.198
297.15 K, x1 = 0.01	0.377
297.15 K, x1 = 0.0197	0.659
297.15 K, x1 = 0.04	0.9006
297.15 K, x1 = 0.0499	1.013
297.15 K, x1 = 0.0707	1.023
299.15 K, x1 = 0.0001281	0.00656
299.15 K, x1 = 0.0001586	0.00782
299.15 K, x1 = 0.0003312	0.0165
299.15 K, x1 = 0.0006135	0.0303
299.15 K, x1 = 0.001095	0.0511
299.15 K, x1 = 0.002002	0.0872
299.15 K, x1 = 0.005707	0.205
299.15 K, x1 = 0.01	0.392
299.15 K, x1 = 0.0197	0.686
299.15 K, x1 = 0.04	0.9366
299.15 K, x1 = 0.0499	1.051
299.15 K, x1 = 0.0707	1.067
301.15 K, x1 = 0.0001281	0.00683
301.15 K, x1 = 0.0001586	0.00814
301.15 K, x1 = 0.0003312	0.0171
301.15 K, x1 = 0.0006135	0.0315
301.15 K, x1 = 0.001095	0.0529
301.15 K, x1 = 0.002002	0.0904
301.15 K, x1 = 0.005707	0.213
301.15 K, x1 = 0.01	0.406
301.15 K, x1 = 0.0197	0.713
301.15 K, x1 = 0.04	0.9737
301.15 K, x1 = 0.0499	1.09
301.15 K, x1 = 0.0707	1.112
303.15 K, x1 = 0.0001281	0.00711
303.15 K, x1 = 0.0001586	0.00847
303.15 K, x1 = 0.0003312	0.0177
303.15 K, x1 = 0.0006135	0.0328
303.15 K, x1 = 0.001095	0.0547
303.15 K, x1 = 0.002002	0.0936
303.15 K, x1 = 0.005707	0.22
303.15 K, x1 = 0.01	0.421
303.15 K, x1 = 0.0197	0.741
303.15 K, x1 = 0.04	1.011
303.15 K, x1 = 0.0499	1.132
303.15 K, x1 = 0.0707	1.152
305.15 K, x1 = 0.0001281	0.00737
305.15 K, x1 = 0.0001586	0.0088
305.15 K, x1 = 0.0003312	0.0184
305.15 K, x1 = 0.0006135	0.034
305.15 K, x1 = 0.001095	0.0566
305.15 K, x1 = 0.002002	0.0969
305.15 K, x1 = 0.005707	0.228
305.15 K, x1 = 0.01	0.436
305.15 K, x1 = 0.0197	0.768
305.15 K, x1 = 0.04	1.047
305.15 K, x1 = 0.0499	1.169
305.15 K, x1 = 0.0707	1.199
307.15 K, x1 = 0.0001281	0.00763
307.15 K, x1 = 0.0001586	0.0092
307.15 K, x1 = 0.0003312	0.0191
307.15 K, x1 = 0.0006135	0.0352
307.15 K, x1 = 0.001095	0.0584
307.15 K, x1 = 0.002002	0.1
307.15 K, x1 = 0.005707	0.235
307.15 K, x1 = 0.01	0.451
307.15 K, x1 = 0.0197	0.794
307.15 K, x1 = 0.04	1.083
307.15 K, x1 = 0.0499	1.208
307.15 K, x1 = 0.0707	1.244
309.15 K, x1 = 0.0001281	0.0079
309.15 K, x1 = 0.0001586	0.00954
309.15 K, x1 = 0.0003312	0.0198
309.15 K, x1 = 0.0006135	0.0364
309.15 K, x1 = 0.001095	0.0603
309.15 K, x1 = 0.002002	0.103
309.15 K, x1 = 0.005707	0.243
309.15 K, x1 = 0.01	0.465
309.15 K, x1 = 0.0197	0.823
309.15 K, x1 = 0.04	1.124
309.15 K, x1 = 0.0499	1.246
309.15 K, x1 = 0.0707	1.286
311.15 K, x1 = 0.0001281	0.00818
311.15 K, x1 = 0.0001586	0.00991
311.15 K, x1 = 0.0003312	0.0205
311.15 K, x1 = 0.0006135	0.0376
311.15 K, x1 = 0.001095	0.0621
311.15 K, x1 = 0.002002	0.106
311.15 K, x1 = 0.005707	0.251
311.15 K, x1 = 0.01	0.48
311.15 K, x1 = 0.0197	0.849
311.15 K, x1 = 0.04	1.161
311.15 K, x1 = 0.0499	1.282
311.15 K, x1 = 0.0707	1.342
313.15 K, x1 = 0.0001281	0.00848
313.15 K, x1 = 0.0001586	0.0103
313.15 K, x1 = 0.0003312	0.0212
313.15 K, x1 = 0.0006135	0.0389
313.15 K, x1 = 0.001095	0.064
313.15 K, x1 = 0.002002	0.11
313.15 K, x1 = 0.005707	0.258
313.15 K, x1 = 0.01	0.494
313.15 K, x1 = 0.0197	0.874
313.15 K, x1 = 0.04	1.195
313.15 K, x1 = 0.0499	1.319
313.15 K, x1 = 0.0707	1.374
315.15 K, x1 = 0.0001281	0.00879
315.15 K, x1 = 0.0001586	0.0107
315.15 K, x1 = 0.0003312	0.022
315.15 K, x1 = 0.0006135	0.0401
315.15 K, x1 = 0.001095	0.0658
315.15 K, x1 = 0.002002	0.113
315.15 K, x1 = 0.005707	0.266
315.15 K, x1 = 0.01	0.508
315.15 K, x1 = 0.0197	0.9
315.15 K, x1 = 0.04	1.233
315.15 K, x1 = 0.0499	1.366
315.15 K, x1 = 0.0707	1.408
317.15 K, x1 = 0.0001281	0.00918
317.15 K, x1 = 0.0001586	0.011
317.15 K, x1 = 0.0003312	0.0227
317.15 K, x1 = 0.0006135	0.0413
317.15 K, x1 = 0.001095	0.0676
317.15 K, x1 = 0.002002	0.116
317.15 K, x1 = 0.005707	0.274
317.15 K, x1 = 0.01	0.522
317.15 K, x1 = 0.0197	0.922
317.15 K, x1 = 0.04	1.271
317.15 K, x1 = 0.0499	1.39
317.15 K, x1 = 0.0707	1.469
319.15 K, x1 = 0.0001281	0.00954
319.15 K, x1 = 0.0001586	0.0114
319.15 K, x1 = 0.0003312	0.0236
319.15 K, x1 = 0.0006135	0.0424
319.15 K, x1 = 0.001095	0.0694
319.15 K, x1 = 0.002002	0.119
319.15 K, x1 = 0.005707	0.281
319.15 K, x1 = 0.01	0.536
319.15 K, x1 = 0.0197	0.945
319.15 K, x1 = 0.04	1.309
319.15 K, x1 = 0.0499	1.434
319.15 K, x1 = 0.0707	1.527
321.15 K, x1 = 0.0001281	0.01
321.15 K, x1 = 0.0001586	0.0118
321.15 K, x1 = 0.0003312	0.0245
321.15 K, x1 = 0.0006135	0.0436
321.15 K, x1 = 0.001095	0.0712
321.15 K, x1 = 0.002002	0.122
321.15 K, x1 = 0.005707	0.289
321.15 K, x1 = 0.01	0.549
321.15 K, x1 = 0.0197	0.968
321.15 K, x1 = 0.04	1.344
321.15 K, x1 = 0.0499	1.466
321.15 K, x1 = 0.0707	1.567
323.15 K, x1 = 0.0001281	0.0104
323.15 K, x1 = 0.0001586	0.0122
323.15 K, x1 = 0.0003312	0.0254
323.15 K, x1 = 0.0006135	0.0447
323.15 K, x1 = 0.001095	0.0729
323.15 K, x1 = 0.002002	0.125
323.15 K, x1 = 0.005707	0.296
323.15 K, x1 = 0.01	0.563
323.15 K, x1 = 0.0197	0.988
323.15 K, x1 = 0.04	1.386
323.15 K, x1 = 0.0499	1.523
323.15 K, x1 = 0.0707	1.607
